Here are results for 6 compounds from article PMC10610424, “Enhancing Solubility and Dissolution Rate of Antifungal Drug Ketoconazole through Crystal Engineering” (Pharmaceuticals, 2023).

The structures appear in SMILES notation. In brackets after ≈: the same amount, converted by molar mass.

For data set [1] the following is noted: cited from earlier work.
A further data set is described as follows: pKa values and ΔpKa rule. The data set is classed as physicochemical. From the text:
To understand the crystal nature of the obtained solid forms (a salt or a cocrystal), three commonly used principles have been summarized, such as the ΔpKa rule, the position of the hydroxyl-H atom retrieved from SCXRD data, and the structural characteristics of interacting groups. The pKa values of the starting functional groups, the ΔpKa values between the two considered groups, the geometric parameters of the C−O bond lengths of the carboxylic/carboxylate group, and the endocyclic C−N−C bond angle are provided in Table 2. Firstly, the ΔpKa rule has long been used for the prediction of salt or cocrystal formation. It is generally accepted that when ΔpKa is >4, proton transfer is expected to occur and salt is anticipated to form; when ΔpKa < −1, on the other hand, the formation of non-ionized cocrystals prevails over that of salts. However, if the ΔpKa values are located in the region of −1 to 4, it is impossible to provide a prediction of a salt or a cocrystal. […] Secondly, the residual density map provided by the SXRD data (Figure S3) could be used to distinguish the location of the H atom and, thus, the cocrystal, salt, and salt–cocrystal continuum could be distinguished. […] Thirdly, the ionization state of the structures was also supported by the difference in the C−O bond lengths in a carboxylic/carboxylate group and the bond angle of C24−N4−C25 in the imidazole ring. In a neutral carboxylic group, the length of C−O is longer than that of C=O, while in the carboxylate anion, there is nearly no difference between the bond lengths of C−O and C−O^− [47]. The endocyclic C−N−C bond angle of the cationic N-heterocycle is higher than that of the neutral state.

Data set [2] can be described thus: Powder dissolution experiments, basket method. The class given is physicochemical. The following applies: pure water and pH 4.5 acetate buffer, 37 °C, up to 480 min. As for the experimental part: The powder dissolution experiments were performed via a dissolution apparatus (RC12AD dissolution tester, TDTF Technology Co., Ltd., Tianjin, China) by a basket method in pure water and pH 4.5 acetate buffer solution, respectively, with a rotation speed of 100 rpm under a temperature of 37 ± 0.2 °C [67]. […] At regular time intervals of 5, 15, 30, 60, 90, 120, 180, 240, 360, and 480 min, 1 mL of solution was extracted, and the withdrawn solutions were filtered using a 0.45 μm syringe tip filter. […] All the dissolution experiments were performed in triplicate. After the dissolution experiments, residual solids were collected, air-dried, and confirmed by PXRD.

For data set [3] the following is noted: value of the coformer (CCF) of the crystal named in the line; source not given; cited from earlier work.
A short description of data set [4]: Equilibrium solubility, shake flask method, HPLC of KTZ. The data set is classed as physicochemical. The following applies: for Equilibrium solubility, concentration of KTZ / solubility thermodynamic at 48 h: 37.0 °C, mean ± SD, triplicate; for Equilibrium solubility, concentration of KTZ / Solid-form stability of residual solids after equilibrium solubility experiments (PXRD) / solubility thermodynamic at 48 h: 48 h; for Solid-form stability of residual solids after equilibrium solubility experiments (PXRD): ultrapure water and pH 4.5 acetate buffer. The method, then: The solutions were stirred at 160 strokes min^−1 with a magnetic bar at 37 °C for 48 h to reach equilibrium. The suspension was filtered through a 0.22 μm nylon filter membrane, diluted appropriately, and analyzed by subsequent high-performance liquid chromatography (HPLC) analysis. […] An Agilent Eclipse XDB−C18 (250 mm × 4.6 mm, 5 μm) column was used throughout the process of elution with the column temperature set to 30 °C. The mobile phase, consisting of methanol and water (80/20, v/v), was run at 1.0 mL min^−1 with a detection wavelength of 254 nm. The injection sample volume was 10 μL. The measurements were performed based on an external standard method. All the solubility experiments were performed in triplicate and the results are expressed as the mean value ± standard deviation (SD). Residual solids were collected after the equilibrium solubility experiment and characterized by PXRD for solid-form stability examinations.

Data set [5] can be described thus: Accelerated stability test, PXRD. The class given is physicochemical. The following applies: high temperature 60 °C, high humidity 90%, illumination 4500 lx; 0, 5, 10 days. The method, then:
Approximately 50 mg of powdered samples were stored under the three test conditions and measured at regular time intervals (0, 5, and 10 days) by PXRD [68].

The term solubility denotes the concentration that dissolves in the medium under given conditions. A word on the thermodynamic solubility: it is solubility found after equilibrating the solid with the medium.

With `CC(=O)N1CCN(c2ccc(OCC3COC(Cn4ccnc4)(c4ccc(Cl)cc4Cl)O3)cc2)CC1.O=C(O)c1ccc(O)c(O)c1` (racemic) [KTZ-PCA-I], the “Solubility in ultrapure water” value in data set [1] (ultrapure water) is on record as “approximately 500 μg mL^−1”.

For `CC(=O)N1CCN(c2ccc(OCC3COC(Cn4ccnc4)(c4ccc(Cl)cc4Cl)O3)cc2)CC1.O=C(O)c1cc([N+](=O)[O-])cc([N+](=O)[O-])c1` (racemic) [KTZ−35DNB], the “ΔpKa Values between CCF and KTZ” value in the data set “pKa values and ΔpKa rule” turned out to be 3.7. In data set [2], the “Solid-form stability of residual solids after powder dissolution experiments (PXRD)” value is listed as “remained stable”. In addition, the “pKa Values of CCFs” value in data set [3] is 2.8. Moreover, the “Solubility of ketoconazole in distilled water” value (from here on “Solubility of ketoconazole”) in data set [4] (distilled water (abstract)) came to 191.7 µg/mL. Further, the “Equilibrium solubility, concentration of KTZ” value in data set [4] (pH 4.5 acetate buffer) was 273.66 ± 9.87 µg/mL; in data set [4] (ultrapure water), 191.67 ± 15.95 µg/mL. Besides, the “Solid-form stability of residual solids after equilibrium solubility experiments (PXRD)” value in data set [4] (37 °C) was “remained stable and nondissociable”.

Turning to `CC(=O)N1CCN(c2ccc(OCC3COC(Cn4ccnc4)(c4ccc(Cl)cc4Cl)O3)cc2)CC1.O=C(O)c1ccc(O)c(O)c1` (racemic) [KTZ−PCA-II], in “pKa values and ΔpKa rule”, the “ΔpKa Values between CCF and KTZ” value came to 2.0. Also, the “pKa Values of CCFs” value in data set [3] was 4.5. Further, the “Solubility of ketoconazole” value in data set [4] (distilled water (abstract)) was 386.3 µg/mL. The “Equilibrium solubility, concentration of KTZ” value in data set [4] (pH 4.5 acetate buffer) turned out to be 308.06 ± 33.95 µg/mL; in data set [4] (ultrapure water), 386.34 ± 89.30 µg/mL.

On to `CC(=O)N1CCN(c2ccc(OCC3COC(Cn4ccnc4)(c4ccc(Cl)cc4Cl)O3)cc2)CC1` (stereo not drawn) [KTZ, cis-1-acetyl-4-[4-[[2-(2,4-dichlorophenyl)-2-(1-H-imidazole-1-ylmethyl)-1,3-dioxolan-4-yl]methoxy]phenyl] piperazine, reference compound], for which the “Stability under accelerated storage conditions (PXRD)” value in data set [5] is reported as “stable”. Further, in data set [4] (37 °C, thermodynamic from solid, distilled water (abstract), read-out: Solubility of ketoconazole in distilled water), the solubility at 48 h amounted to 1.2 µg/mL (≈ 2.26 µM). In addition, the solubility (thermodynamic) at 48 h turned out to be 239 ± 4.69 µg/mL (≈ 451 µM) in data set [4] (aqueous buffer, thermodynamic from solid, pH 4.5 acetate buffer) and 1.2 ± 0.27 µg/mL (≈ 2.26 µM) in data set [4] (thermodynamic from solid, ultrapure water). For the same compound, the Solubility in water in data set [1] (water, 25 °C) is 0.087 µg/mL (≈ 0.164 µM).

For the compound `CC(=O)N1CCN(c2ccc(OCC3COC(Cn4ccnc4)(c4ccc(Cl)cc4Cl)O3)cc2)CC1.O=C(O)CCCC(=O)O` (racemic) [KTZ−GTA], the “ΔpKa Values between CCF and KTZ” value in the data set “pKa values and ΔpKa rule” is recorded as 2.2. Besides, the “pKa Values of CCFs” value in data set [3] is given as 4.3. In addition, the “Solubility of ketoconazole” value in data set [4] (distilled water (abstract)) came to 2165.6 µg/mL. For the same compound, the “Equilibrium solubility, concentration of KTZ” value was determined as 339.87 ± 28.33 µg/mL in data set [4] (pH 4.5 acetate buffer) and 2165.56 ± 251.34 µg/mL in data set [4] (ultrapure water). Besides, in data set [4] (water), the “Solubility increase in water concerning ketoconazole” value was found to be 1800 fold.

As for `CC(=O)N1CCN(c2ccc(OCC3COC(Cn4ccnc4)(c4ccc(Cl)cc4Cl)O3)cc2)CC1.O=C(O)c1c(O)cccc1O` (racemic) [KTZ−26DHB], in the data set “pKa values and ΔpKa rule”, the “ΔpKa Values between CCF and KTZ” value stood at 3.9. Further, the “Solid-form stability of residual solids after powder dissolution experiments (PXRD)” value in data set [2] is recorded as “remained stable”. In addition, the “pKa Values of CCFs” value in data set [3] is on record as 1.6. Further, the “Solubility of ketoconazole” value in data set [4] (distilled water (abstract)) was 139.1 µg/mL. The figures for the “Equilibrium solubility, concentration of KTZ” value in data set [4] (pH 4.5 acetate buffer) and in data set [4] (ultrapure water) were 263.76 ± 8.51 µg/mL and 139.13 ± 14.25 µg/mL, respectively. In data set [4] (37 °C), the “Solid-form stability of residual solids after equilibrium solubility experiments (PXRD)” value was “remained stable and nondissociable”.
